Results as given in ChEMBL document CHEMBL1687869, “Cycloartane triterpenes isolated from Combretum quadrangulare in a screening program for death-receptor expression enhancing activity” (2011).
Calls of active or inactive are those of the source. The rule behind the calls is not given here.

Experiments:
[1] = tested on: AGS; assay: Cytotoxicity against TRAIL-resistant human AGS cells assessed as cell viability at 17.5 uM after 24 hrs by fluorometric microculture assay; type: functional; settings: read-out: Activity
[2] = target: Tumor necrosis factor receptor superfamily member 10B (Homo sapiens) (UniProt O14763); assay: Increase in DR5 promoter activity in SacI gene expressing human DLD1 cells at 17.5 uM after 24 hrs by luciferase reporter gene assay relative to control; type: cell-based; settings: DLD-1
Tumor necrosis factor receptor superfamily member 10B (Homo sapiens), sequence (O14763 whole entry): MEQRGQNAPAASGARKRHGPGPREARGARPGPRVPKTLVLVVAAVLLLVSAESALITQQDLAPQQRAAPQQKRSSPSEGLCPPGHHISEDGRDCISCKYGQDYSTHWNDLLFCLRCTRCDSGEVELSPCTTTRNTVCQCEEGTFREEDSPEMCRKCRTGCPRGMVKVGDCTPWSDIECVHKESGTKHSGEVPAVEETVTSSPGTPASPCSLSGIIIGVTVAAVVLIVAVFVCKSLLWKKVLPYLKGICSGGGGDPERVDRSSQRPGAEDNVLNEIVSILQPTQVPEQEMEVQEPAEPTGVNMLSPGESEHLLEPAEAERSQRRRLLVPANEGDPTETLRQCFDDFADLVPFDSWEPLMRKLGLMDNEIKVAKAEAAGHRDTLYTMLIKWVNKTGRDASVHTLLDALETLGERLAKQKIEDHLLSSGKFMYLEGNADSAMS

[3] = tested on: AGS; assay: Cytotoxicity against TRAIL-resistant human AGS cells assessed as cell viability at 17.5 uM after 24 hrs by fluorometric microculture assay in presence of 100 ng/ml TRAIL; type: functional
[4] = target: Tumor necrosis factor receptor superfamily member 10B (Homo sapiens) (UniProt O14763); assay: Increase in DR5 promoter activity in SacI gene expressing human DLD1 cells at 17.5 to 70 uM after 24 hrs by luciferase reporter gene assay relative to control; type: cell-based; settings: DLD-1
[5] = tested on: AGS; assay: Cytotoxicity against TRAIL-resistant human AGS cells assessed as cell viability at 12.5 uM after 24 hrs by fluorometric microculture assay in presence of 100 ng/ml TRAIL; type: functional

SMILES | fold change (FC) [4] | other results
O=c1cc(-c2ccc(O)c(O)c2)oc2cc(O)cc(O)c12 [LUTEOLIN] |  | viability at 17.5 µM [1]: 51%; Activity [2]: Active
COc1ccc(-c2oc3cc(O)cc(O)c3c(=O)c2OC)cc1O | 6.7 | Activity [3]: 24%; Activity [5]: 27%
COC(C)(C)/C=C/C[C@@H](C)[C@H]1CC[C@@]2(C)[C@@H]3[C@@H](O)C[C@H]4C(C)(C)C(=O)CC[C@@]45C[C@@]35CC[C@]12C | 2.5 | 
COc1c(O)cc(-c2oc3cc(O)cc(O)c3c(=O)c2OC)cc1O | 2 | 
COc1cc(-c2oc3cc(O)cc(O)c3c(=O)c2OC)cc(O)c1OC | 2.2 | 
C=C(C)[C@@H](O)CC[C@@H](C)[C@H]1CC[C@@]2(C)[C@@H]3[C@@H](OC(C)=O)C[C@H]4[C@](C)(C(=O)O)[C@@H](O)CC[C@@]45C[C@@]35CC[C@]12C | 1.7 | 
